Test results: publication PMC4775997, “Imidazopyridazine Inhibitors of Plasmodium falciparum Calcium-Dependent Protein Kinase 1 Also Target Cyclic GMP-Dependent Protein Kinase and Heat Shock Protein 90 To Kill the Parasite at Different Stages of Intracellular Development” (Antimicrobial Agents and Chemotherapy, 2016)
Like-named read-outs stand apart in the source and are kept apart here.

What was measured:
P. falciparum 3D7 [1] = test: SYBR green I growth assay, wild-type parasites; format: cell-based, Plasmodium falciparum; settings: Plasmodium falciparum
PfPKG = target: T1, PfPKG (Plasmodium falciparum, UniProt Q8I719); test: Microfluidic fluorescent shift assay of cGMP-dependent protein kinase activity; format: biochemical
T1 construct: plasmids (pTrcHisC) encoding full-length PfPKG and PfPKG T618Q with N-terminal His tags; His tag (N); made in house; host or cells: E. coli Rosetta2(DE3)

PfPKG T618Q = target: T2, PfPKG T618Q (Plasmodium falciparum, UniProt Q8I719, T618Q); test: biochemical; format: biochemical
T2 construct: plasmids (pTrcHisC) encoding full-length PfPKG and PfPKG T618Q with N-terminal His tags; His tag (N); made in house; host or cells: E. coli Rosetta2(DE3)

3D7 PKG T618Q = test: microbe, parasite or virus in culture; format: cell-based, Plasmodium falciparum; settings: Plasmodium falciparum, 3D7, 96 h, read-out: Parasite inhibition EC50, 3D7 PKG T618Q
PfHSP90 = PfHSP90 (Plasmodium falciparum, UniProt Q8IC05); test: Tryptophan fluorescence binding, full-length PfHSP90
Method: (§1) The PCR product was cloned into pRSET-A (Life Technologies) between the BamHI and XhoI sites. Positive clones were confirmed by restriction digestion and sequencing. The clone was transformed into Escherichia coli Rosetta(pLysS) cells, and protein was expressed by induction with 0.1 mM isopropyl β-D-1-thiogalactopyranoside (IPTG) at 37°C for 2 h. PfHSP90 proteins were purified using Ni-nitrilotriacetic acid (NTA) affinity chromatography (Qiagen) as described in the manufacturer's protocol.
Tryptophan fluorescence analysis was performed using a PerkinElmer LS55 luminescence spectrometer. […] The binding buffer used for the reaction contained 50 mM Tris-HCl, pH 7.4, and 1 mM EDTA. Samples were excited at 280 nm, and tryptophan fluorescence measurements were carried out by scanning the emission spectrum in the wavelength range 300 to 400 nm. A maximum wavelength (λmax) of 346 nm was selected for all the calculations. The slit widths of excitation and emission were set at 2.5 and 5 nm, respectively. The difference in fluorescence intensity between protein alone and protein with various concentrations of 17-AAG or compound D was calculated and plotted against the different concentrations of the respective ligand used. The resultant hyperbolic curve was analyzed with GraphPad Prism software, using nonlinear regression analysis with single-site-specific binding as described previously ([32]).

PfHSP90-NTD = PfHSP90-NTD (Plasmodium falciparum, UniProt Q8IC05); test: Tryptophan fluorescence binding, PfHSP90 N-terminal domain
From the text: PfCDPK1 and PfCDPK1 T145G proteins were produced using methods described elsewhere ([23]). The PfHSP90 N-terminal domain (NTD) comprises the first 223 amino acids of PfHSP90. This region was amplified from the full-length PfHSP90-pRSET-A construct ([32]) using the following primers: primer 7, […]; primer 8, […].
as §1, with “PfHSP90 proteins were purified using Ni-nitrilotriacetic acid (NTA) affinity chromatography (Qiagen) as described in the manufacturer's protocol.” left out
Tryptophan fluorescence analysis was performed using a PerkinElmer LS55 luminescence spectrometer. […] Samples were excited at 280 nm, and tryptophan fluorescence measurements were carried out by scanning the emission spectrum in the wavelength range 300 to 400 nm. […] The difference in fluorescence intensity between protein alone and protein with various concentrations of 17-AAG or compound D was calculated and plotted against the different concentrations of the respective ligand used. The resultant hyperbolic curve was analyzed with GraphPad Prism software, using nonlinear regression analysis with single-site-specific binding as described previously ([32]).

trophozoite cell lysate = test: Affinity purification of targets of biotinylated compound D, LC-MS/MS; format: binding, Plasmodium falciparum; settings: biotin linked to R1 group of compound D, streptavidin-agarose
Method: A total of 200 μl of high-capacity streptavidin agarose (Thermo Scientific) was resuspended in 1 ml of 250 μg/ml biotinylated compound D solution or a DMSO control. After incubation with mixing for 1 h at room temperature, unbound compound was removed by extensive washing with phosphate-buffered saline (PBS). The resin was incubated with trophozoite lysate containing 2 mg of protein in a total volume of 1.5 ml overnight at 4°C. The lysate was prepared by resuspending trophozoites in 20 mM Tris-HCl, pH 8.0, 10 mM MgCl2, 250 mM NaCl, 0.5 mM tris(2-carboxyethyl)phosphine (TCEP), 1× protein phosphatase inhibitor (Sigma-Aldrich), 1× complete protease inhibitors (Roche), and 0.1% Triton X-100 (Sigma-Aldrich). Insoluble proteins were removed by centrifugation at 15,000 × g for 20 min, and protein was quantitated using a detergent-compatible (DC) protein assay (Bio-Rad). […]
Proteins were run 4 mm into a 10% NuPAGE Bis-Tris gel (Life Technologies) and then excised using a clean scalpel blade. […] The resulting digests were analyzed by liquid chromatography-tandem mass spectrometry (LC-MS/MS) using an Ultimate 3000 nanoRSLC high-performance liquid chromatograph (HPLC), equipped with a 50-cm by 75-μm Acclaim Pepmap C18 column, coupled to a linear trap quadrupole (LTQ) Orbitrap Velos Pro equipped with a Nanoflex electrospray source (all Thermo Scientific). […]

P. falciparum 3D7 [2] = test: Microscopic examination of Giemsa-stained smears (stage of action)
CDPK1 T145G = target: T3, CDPK1 T145G (Plasmodium falciparum, UniProt P62344, T145G); test: ParM ADP biosensor assay, CDPK1 T145G; format: biochemical
T3 construct: PfCDPK1 and PfCDPK1 T145G proteins were produced using methods described elsewhere; made in house

3D7 CDPK1 T145T-HA = test: SYBR green assay, 3D7 CDPK1 T145T-HA line; format: cell-based; settings: Plasmodium falciparum, 3D7, read-out: EC50, 3D7 CDPK1 T145T-HA
Method: (§2) Aliquots of 100 μl of P. falciparum cultures 24 h after erythrocyte invasion were transferred into 96-well culture dishes. Cells were incubated with inhibitors for 48 or 96 h (starting parasitemias were 0.3% and 0.03%, respectively). All drug treatments were carried out in duplicate at a final dimethyl sulfoxide (DMSO) concentration of 0.05%. After incubation, a modification of a previously described SYBR green assay was performed ([27]). Cells were lysed by the addition of 25 μl of buffer (20 mM Tris-HCl, pH 8.0, 2 mM EDTA, pH 8.0, 1.6% Triton X-100, 0.16% saponin, 10× SYBR green I [Life Technologies]). After incubation in the dark for 2 h, fluorescence of the samples was determined using a FLUOStar Omega plate reader (BMG Labtech) with excitation and emission filters of 485 nm and 520 nm, respectively. EC50s were calculated from a four-parameter logistical fit of the data using Prism software (GraphPad Software, Inc.).
(§3) Parasites expressing CDPK1 T145G and CDPK1 T145T were generated as described previously ([28]). Briefly, a region of homology to facilitate integration of the plasmid via single-crossover homologous recombination was amplified from P. falciparum 3D7 genomic DNA at 194 bp upstream of the ATG to bp 435 of the open reading frame using primers 1 and 2 for the wild-type (WT) version and primers 1 and 3 for the glycine version. […]

3D7 CDPK1 T145G-HA = test: SYBR green assay, 3D7 CDPK1 T145G-HA line; format: cell-based; settings: Plasmodium falciparum, 3D7, read-out: EC50, 3D7 CDPK1 T145G-HA
Method: as §2, §3

WT CDPK1 = WT CDPK1 (Plasmodium falciparum, UniProt P62344); test: biochemical
WT CDPK1, sequence (P62344 whole entry): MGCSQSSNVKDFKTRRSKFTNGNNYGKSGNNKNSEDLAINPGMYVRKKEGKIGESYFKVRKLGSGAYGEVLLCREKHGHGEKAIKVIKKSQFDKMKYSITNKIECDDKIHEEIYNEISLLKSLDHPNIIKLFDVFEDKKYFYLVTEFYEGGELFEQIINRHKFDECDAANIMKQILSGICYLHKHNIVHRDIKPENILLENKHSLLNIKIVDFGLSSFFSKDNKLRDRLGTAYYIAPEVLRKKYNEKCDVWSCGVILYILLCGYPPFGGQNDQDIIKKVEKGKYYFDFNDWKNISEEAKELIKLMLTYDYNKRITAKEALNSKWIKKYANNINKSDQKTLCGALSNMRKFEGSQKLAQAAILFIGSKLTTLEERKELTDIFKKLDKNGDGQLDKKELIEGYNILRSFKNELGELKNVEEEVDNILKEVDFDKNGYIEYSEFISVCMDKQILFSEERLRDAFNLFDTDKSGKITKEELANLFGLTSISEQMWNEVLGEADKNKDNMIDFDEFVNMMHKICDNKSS

T3 sequence (P62344 whole entry T145G): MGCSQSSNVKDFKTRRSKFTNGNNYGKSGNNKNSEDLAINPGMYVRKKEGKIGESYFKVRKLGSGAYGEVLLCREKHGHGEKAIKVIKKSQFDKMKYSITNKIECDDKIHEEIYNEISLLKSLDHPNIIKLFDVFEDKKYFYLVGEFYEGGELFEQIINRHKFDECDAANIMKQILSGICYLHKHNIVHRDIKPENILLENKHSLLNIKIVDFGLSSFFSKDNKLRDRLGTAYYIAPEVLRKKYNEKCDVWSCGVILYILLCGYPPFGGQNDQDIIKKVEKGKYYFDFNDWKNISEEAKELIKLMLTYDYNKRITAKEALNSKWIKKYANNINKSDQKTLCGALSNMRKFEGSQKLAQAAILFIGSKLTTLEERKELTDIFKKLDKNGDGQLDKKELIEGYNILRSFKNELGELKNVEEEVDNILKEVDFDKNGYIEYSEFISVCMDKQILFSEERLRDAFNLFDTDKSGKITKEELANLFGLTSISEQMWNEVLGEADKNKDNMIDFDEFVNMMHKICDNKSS
T2 sequence (Q8I719 whole entry T618Q): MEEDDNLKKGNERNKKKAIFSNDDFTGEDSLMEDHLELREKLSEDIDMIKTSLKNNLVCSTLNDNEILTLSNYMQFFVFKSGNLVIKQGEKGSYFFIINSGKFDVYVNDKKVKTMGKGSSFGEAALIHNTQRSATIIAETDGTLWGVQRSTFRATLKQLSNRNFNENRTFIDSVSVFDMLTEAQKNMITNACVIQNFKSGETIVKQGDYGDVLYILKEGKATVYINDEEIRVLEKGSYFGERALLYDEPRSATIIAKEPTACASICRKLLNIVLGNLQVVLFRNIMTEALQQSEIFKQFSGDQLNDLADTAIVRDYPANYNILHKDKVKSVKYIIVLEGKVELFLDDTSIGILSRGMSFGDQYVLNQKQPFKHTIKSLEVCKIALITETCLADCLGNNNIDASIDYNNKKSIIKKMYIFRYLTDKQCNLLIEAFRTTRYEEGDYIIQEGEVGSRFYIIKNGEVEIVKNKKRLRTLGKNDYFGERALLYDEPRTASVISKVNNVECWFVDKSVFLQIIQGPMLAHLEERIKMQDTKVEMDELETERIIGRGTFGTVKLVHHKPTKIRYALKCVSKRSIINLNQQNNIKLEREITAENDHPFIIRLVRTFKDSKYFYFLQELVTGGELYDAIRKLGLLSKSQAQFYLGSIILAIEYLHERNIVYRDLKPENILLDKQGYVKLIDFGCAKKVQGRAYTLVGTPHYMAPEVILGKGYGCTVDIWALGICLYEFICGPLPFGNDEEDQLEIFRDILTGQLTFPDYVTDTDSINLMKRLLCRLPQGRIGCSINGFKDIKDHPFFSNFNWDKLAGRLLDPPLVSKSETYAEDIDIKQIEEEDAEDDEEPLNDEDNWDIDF
PfHSP90-NTD, sequence (Q8IC05 entry or part of it): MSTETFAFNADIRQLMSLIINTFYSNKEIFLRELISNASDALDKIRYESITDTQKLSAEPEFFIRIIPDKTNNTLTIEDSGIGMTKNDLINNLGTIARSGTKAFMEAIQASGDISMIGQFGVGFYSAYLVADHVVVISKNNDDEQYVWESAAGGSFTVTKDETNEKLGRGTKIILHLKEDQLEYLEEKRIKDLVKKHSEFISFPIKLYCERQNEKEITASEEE
PfHSP90, sequence (Q8IC05 entry or part of it): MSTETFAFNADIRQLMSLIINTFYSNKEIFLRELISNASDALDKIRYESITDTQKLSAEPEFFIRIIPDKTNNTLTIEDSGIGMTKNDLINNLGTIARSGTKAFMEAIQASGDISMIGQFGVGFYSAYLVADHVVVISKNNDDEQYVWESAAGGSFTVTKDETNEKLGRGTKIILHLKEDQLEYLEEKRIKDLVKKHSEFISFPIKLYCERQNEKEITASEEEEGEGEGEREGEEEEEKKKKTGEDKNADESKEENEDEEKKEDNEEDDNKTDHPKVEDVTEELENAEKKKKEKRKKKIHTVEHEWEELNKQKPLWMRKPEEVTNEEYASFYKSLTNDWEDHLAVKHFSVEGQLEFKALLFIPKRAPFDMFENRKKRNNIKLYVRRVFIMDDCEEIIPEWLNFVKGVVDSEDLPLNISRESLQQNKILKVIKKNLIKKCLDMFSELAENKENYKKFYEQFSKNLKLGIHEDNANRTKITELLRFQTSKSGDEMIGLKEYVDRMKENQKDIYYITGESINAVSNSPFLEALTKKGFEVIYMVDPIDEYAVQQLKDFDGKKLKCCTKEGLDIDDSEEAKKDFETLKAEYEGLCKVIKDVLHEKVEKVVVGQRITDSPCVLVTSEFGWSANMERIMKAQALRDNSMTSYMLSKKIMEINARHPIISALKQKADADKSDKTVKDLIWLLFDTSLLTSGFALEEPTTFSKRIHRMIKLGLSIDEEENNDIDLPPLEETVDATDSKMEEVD

| Structure (SMILES) | EC50 (P. falciparum 3D7 [1]; 3D7, 48 h, Table S1, single experiment with duplicate samples, or mean of triplicate experiments (SD), read-out: EC50 48 hours) | EC50 (P. falciparum 3D7 [1]; 3D7, 96 h, Table S1, single experiment with duplicate samples, or mean of triplicate experiments (SD), read-out: EC50 96 hours) | EC50 (P. falciparum 3D7 [1]; 3D7, SYBR green I, 48 h incubation, mean of three independent experiments (SD), read-out: EC50 after treatment for 48 h) | EC50 (P. falciparum 3D7 [1]; 3D7, SYBR green I, 96 h incubation, mean of three independent experiments (SD), read-out: EC50 after treatment for 96 h) | EC50 (P. falciparum 3D7 [1]; 3D7, Table 2, SYBR green I, 96 h, single experiment, or mean (SD) of duplicate assays, read-out: Parasite inhibition EC50, 3D7) | IC50 (PfPKG) | IC50 (PfPKG T618Q) | EC50 (3D7 PKG T618Q) | Kd (PfHSP90) | Kd (PfHSP90-NTD) | Significant hit identified by LC-MS/MS (trophozoite cell lysate) | Stage of action (before or after DNA synthesis) (P. falciparum 3D7 [2]; Table S1, ring-stage parasites, 10x EC50 for 48 h) | Developmental arrest seen in smears (P. falciparum 3D7 [2]; parasites about 21 h after invasion, 48 h at 10 times the EC50 determined by FACS (compound C 0.3 μM, compound D 4 μM)) | Stage of action (P. falciparum 3D7 [2]; ring stage parasites treated with 10 times the 96-h EC50 for 48 h) | IC50 (CDPK1 T145G) | Increase in sensitivity of CDPK1 T145G over wild-type enzyme (CDPK1 T145G; ratio of IC50s) | EC50 (3D7 CDPK1 T145T-HA) | EC50 (3D7 CDPK1 T145G-HA) | IC50 (WT CDPK1) |
| --- | --- | --- | --- | --- | --- | --- | --- | --- | --- | --- | --- | --- | --- | --- | --- | --- | --- | --- | --- |
| CC(C)CCNc1ccc(-c2cnc3ccc(NC4CCN(C)CC4)nn23)cn1 [Compound 7] | 360 nM | 310 nM | 355 nM | 311 nM | 427 nM | 484 nM | 15500 nM | 477 nM | 6170 nM | 10700 nM | HSP90 | trophozoite | failed to develop beyond late rings/early trophozoites | Trophozoite | – | – | – | – | – |
| CC(C)(C)n1nc(-c2cccc3ccccc23)c2c(N)ncnc21 [NA-PP1, 1-(1,1-dimethylethyl)-3-(1-naphthalenyl)-1H-pyrazolo[3,4-d]pyrimidin-4-amine] | – | – | – | – | – | – | – | – | – | – | – | – | – | – | 150 nM | 41 fold | 14300 nM | 15600 nM | 6010 nM |
